A word on the EC50: it is the concentration that produces a half-maximal response. A higher EC50 goes with weaker potency.

6 compounds from patent publication US20240092770A1, “Heterocycle RMB39 Modulators” (Recursion Pharmaceuticals, Inc., priority 2022, published 2024) can be followed below.

For the experiment, the target named is RBM39 and the DCAF15 complex (RBM39-Flag / His-DCAF15-DDA1-DDB1) (Homo sapiens (Human), UniProt Q14498+Q66K64). The experiment in a line: DCAF15 RBM39 complex formation TR-FRET assay. The following applies: RBM39(R150-D331) 3xFlag 50 nM, His-DCAF15-DDA1-DDB1 10 nM, 60 min room temperature. Format: binding. As for the experimental part:
A TR-FRET assay was used to assess the effect of compounds disclosed herein on the interaction between RBM39 and the DCAF15 complex. Test compounds were dissolved to form a 10 mM DMSO stock solution. A 45 μL aliquot of the stock solution was transferred to a 384 pp-plate, and a threefold, 8-point dilution was performed via transferring 15 μL compound solution into 30 μL of DMSO. The plates were then spun at room temperature at 1,000 RPM for 1 minute.
A 30 nL aliquot of the diluted compound was transferred to a 384 well plate, which was incubated at room temperature for 15 minutes. Next, Solutions 1, 2, and 3 were prepared as described in the below tables. A 5 μL aliquot of Solution 2 was added to each well, followed by 5 μL of Solution 3 to start the reaction. The final volume of each well was 10 μL. The plates were incubated at room temperature for 60 minutes, and then read.
Next, an RBM39 (R150-D331) 3× Flag used in TR-FRET assay was prepared:
Recombinant RBM39 protein is composed of the R1R2 of RBM39 (aa 150 to 331; UniProt: Q14498). The coding sequence was sub-cloned into pGEX4T-1-RBM39-flag vector, expressed as a GST-fusion protein with N-terminal TEV protease cleavage site. A 3× Flag tag was added to the C-terminal of R1R2 used in a FRET assay.
Background: In TR-FRET formats the signal depends on donor and acceptor labels being close together.
`CCc1nc(S(=O)(=O)Nc2cccc3c(Cl)c[nH]c23)c[nH]1` [Compound 158] showed an EC50 of 433 nM. Turning to `Cc1ccc(NS(=O)(=O)c2ncc(-c3cocn3)s2)c2[nH]cc(C#N)c12` [Compound 71], the midpoint of the response, the EC50, lay at 532 nM. The result for `Cc1ccc(NS(=O)(=O)c2cn(CC(C)C)cn2)c2[nH]cc(C#N)c12` [Compound 161] reads 978 nM. With `N#Cc1c[nH]c2c(NS(=O)(=O)c3cncs3)cccc12` [Compound 50, N-(3-cyano-1H-indol-7-yl)thiazole-5-sulfonamide], the midpoint of the response, the EC50, lay at 966 nM. In turn, `Cc1ncc(S(=O)(=O)Nc2ccc(C)c3c(C#N)c[nH]c23)o1` [Compound 98] came in with an EC50 of 196 nM. With `Cc1ccc(NS(=O)(=O)c2cnc(C(C)(C)C)o2)c2[nH]cc(C#N)c12` [Compound 100], the EC50 is 364 nM.
